Data: ChEMBL document CHEMBL1128890, “Synthesis and antifungal activities of optically active isomers of SM-8668” (1995)
≈ marks a conversion by molar mass, not a printed value.

Assays:
Type in all cases: functional
Candida albicans = experiment: Minimum inhibitory concentration required for in vitro antifungal activity against Candida albicans KB-8 strain
Mus musculus [1] = experiment: Effective dose against Aspergillus fumigatus MTU6001 strain after po administration in murine
Mus musculus [2] = experiment: Effective dose against Aspergillus fumigatus MTU6001 strain after iv administration in murine
Mus musculus [3] = experiment: Effective dose against Candida albicans KB-8 strain after po administration in murine
Mus musculus [4] = experiment: Effective dose against Candida albicans KB-8 strain after iv administration in murine
Aspergillus fumigatus = experiment: Minimum inhibitory concentration required for in vitro antifungal activity against Aspergillus fumigatus MTU6001 strain

SMILES	MIC (Candida albicans) [µg/mL]	ED50 (Mus musculus [1]) [mg/kg]	ED50 (Mus musculus [2]) [mg/kg]	ED50 (Mus musculus [3]) [mg/kg]	ED50 (Mus musculus [4]) [mg/kg]	MIC (Aspergillus fumigatus) [µg/mL]
C[C@H]([C@](O)(Cn1cncn1)c1ccc(F)cc1F)S(C)(=O)=O [GENACONAZOLE]	0.1 (≈ 0.302 µM)	4.1	5.3	0.27	0.26	6.25 (≈ 18.9 µM)
C[C@@H]([C@@](O)(Cn1cncn1)c1ccc(F)cc1F)S(C)(=O)=O	50 (≈ 151 µM)	> 125	> 25	> 100	> 25	> 800
CC(C(O)(Cn1cncn1)c1ccc(F)cc1F)S(C)(=O)=O (racemic)	0.2 (≈ 0.604 µM)	18		0.38		12.5 (≈ 37.7 µM)
